Here are results for 1 molecule from US8986957B2, “Cell culture medium” (Novartis AG, priority 2010, dated 2015).

Experiment [1] has as its system CHO cells expressing mAb3 and mAb4. Here is the method: In a further set of experiments, choline chloride is added in various concentrations (40; 80; 120; 160, 200; 240; 500; 840; 1000; 3000 und 5000 mg/l in total) to powder growth medium. The media thus obtained are used for producing mAb3 and mAb4, respectively, generally as outlined above.
Normalized antibody concentrations, normalized viable cell densities, and viabilities, for mAb3 and in addition for mAb4 the normalized cell specific productivity for the whole duration of the cultivation (13 resp. 17 days) are further depicted in FIG. 14 to FIG. 24.

Experiment [2] has as its system CHO cells expressing mAb3. Conditions: higher concentrations of choline chloride in production medium vs standard 240 mg/L.
Experimental: Three aliquots of this parental cell line are transfected to express three different monoclonal antibodies mAb1, mAb2, mAb3, respectively.
All nine shake flasks (three for each experiment) are run under the same conditions, except for the medium. The conditions involve a fed-batch culture with two daily bolus feeds starting at days 3 and 5 with a feeding rate of 2 and 0.4% of the initial culture volume per day; a temperature shift from 36.5° C. to 33° C. at day 5; 10% CO2 in the incubator; a shaking rate of 150 rpm (stroke radius=25 mm). The cell growth/viability of the cells as well as the resulting titer of recombinant antibody expressed are determined.
Setting [3] is: choline chloride 3000 mg/l and more.

In the case of `C[N+](C)(C)CCO.[Cl-]` [choline chloride], in experiment [1] (40 mg/l choline chloride in total, after 13 or 17 days in culture), the “viability and antibody concentration” value is “lowest values”. Besides, the viability entry in experiment [1] (all choline concentrations higher than 40 mg/l) is recorded as “higher”. In addition, in experiment [1] (setting [3]), the cell growth entry is “do not grow” and the “viability of the cells” value is given as “do not negatively affect the viability”. Also, the normalized antibody concentration entry in experiment [1] (choline chloride 3000 mg/l and more, after 13 or 17 days) is on record as “below 1”. For the same molecule, the “cell growth or polypeptide titer” value in experiment [2] was “did not result in improved cell growth or polypeptide titer”.
